Experimental data: PMC8536124 (International Journal of Molecular Sciences, 2021)

Key:
NCI-H226 = system: NCI-H226; parameters: method as in earlier work; conditions: cited from earlier work
NCI/ADR-RES = system: NCI/ADR-RES; parameters: method as in earlier work; conditions: cited from earlier work
Colon Cancer = system: Colon Cancer; parameters: method as in earlier work; conditions: Colon Cancer subpanel; read-out: GI50 MG_MID; cited from earlier work
DU-145 = system: DU-145; parameters: method as in earlier work; conditions: cited from earlier work
[1] = system: NCI-60 cancer cell line panel; parameters: method as in earlier work; conditions: mean graph midpoint, full panel; read-out: GI50 MG_MID60; cited from earlier work
NCI-H522 = system: NCI-H522; parameters: method as in earlier work; conditions: cited from earlier work
TK-10 = system: TK-10; parameters: method as in earlier work; conditions: cited from earlier work
OVCAR-5 = system: OVCAR-5; parameters: method as in earlier work; conditions: cited from earlier work
SK-MEL-5 = system: SK-MEL-5; parameters: method as in earlier work; conditions: cited from earlier work
NCI-H23 = system: NCI-H23; parameters: method as in earlier work; conditions: cited from earlier work
ACHN = system: ACHN; parameters: method as in earlier work; conditions: cited from earlier work
MALME-3M = system: MALME-3M; parameters: method as in earlier work; conditions: cited from earlier work
A549/ATCC = system: A549/ATCC; parameters: method as in earlier work; conditions: cited from earlier work
LOX IMVI = system: LOX IMVI; parameters: method as in earlier work; conditions: cited from earlier work
OVCAR-3 = system: OVCAR-3; parameters: method as in earlier work; conditions: cited from earlier work
UO-31 = system: UO-31; parameters: method as in earlier work; conditions: cited from earlier work
786-0 = system: 786-0; parameters: method as in earlier work; conditions: cited from earlier work
CAKI-1 = system: CAKI-1; parameters: method as in earlier work; conditions: cited from earlier work
T-47D = system: T-47D; parameters: method as in earlier work; conditions: cited from earlier work
SF-268 = system: SF-268; parameters: method as in earlier work; conditions: cited from earlier work
Prostate cancer = system: Prostate cancer; parameters: method as in earlier work; conditions: Prostate cancer subpanel; read-out: GI50 MG_MID; cited from earlier work
HOP-92 = system: HOP-92; parameters: method as in earlier work; conditions: cited from earlier work
M14 = system: M14; parameters: method as in earlier work; conditions: cited from earlier work
SK-MEL-2 = system: SK-MEL-2; parameters: method as in earlier work; conditions: cited from earlier work
CNS cancer = system: CNS cancer; parameters: method as in earlier work; conditions: CNS cancer subpanel; read-out: GI50 MG_MID; cited from earlier work
SK-OV-3 = system: SK-OV-3; parameters: method as in earlier work; conditions: cited from earlier work
Ovarian cancer = system: Ovarian cancer; parameters: method as in earlier work; conditions: Ovarian cancer subpanel; read-out: GI50 MG_MID; cited from earlier work
MCF7 = system: MCF7; parameters: method as in earlier work; conditions: cited from earlier work
HT29 = system: HT29; parameters: method as in earlier work; conditions: cited from earlier work
A498 = system: A498; parameters: method as in earlier work; conditions: cited from earlier work
PC-3 = system: PC-3; parameters: method as in earlier work; conditions: cited from earlier work
HOP-62 = system: HOP-62; parameters: method as in earlier work; conditions: cited from earlier work
Renal Cancer = system: Renal Cancer; parameters: method as in earlier work; conditions: Renal cancer subpanel; read-out: GI50 MG_MID; cited from earlier work
RXF 393 = system: RXF 393; parameters: method as in earlier work; conditions: cited from earlier work
SN12C = system: SN12C; parameters: method as in earlier work; conditions: cited from earlier work
SF-539 = system: SF-539; parameters: method as in earlier work; conditions: cited from earlier work
SW-620 = system: SW-620; parameters: method as in earlier work; conditions: cited from earlier work
MDA-MB-31/ATCC = system: MDA-MB-31/ATCC; parameters: method as in earlier work; conditions: cited from earlier work
OVCAR-4 = system: OVCAR-4; parameters: method as in earlier work; conditions: cited from earlier work
BT-549 = system: BT-549; parameters: method as in earlier work; conditions: cited from earlier work
Melanoma = system: Melanoma; parameters: method as in earlier work; conditions: Melanoma subpanel; read-out: GI50 MG_MID; cited from earlier work
NCI-H460 = system: NCI-H460; parameters: method as in earlier work; conditions: cited from earlier work
SNB-19 = system: SNB-19; parameters: method as in earlier work; conditions: cited from earlier work
OVCAR-8 = system: OVCAR-8; parameters: method as in earlier work; conditions: cited from earlier work
HCT-15 = system: HCT-15; parameters: method as in earlier work; conditions: cited from earlier work
MDA-MB-435 = system: MDA-MB-435; parameters: method as in earlier work; conditions: cited from earlier work
HS 578T = system: HS 578T; parameters: method as in earlier work; conditions: cited from earlier work
HCT-116 = system: HCT-116; parameters: method as in earlier work; conditions: cited from earlier work
NSC lung cancer = system: NSC lung cancer; parameters: method as in earlier work; conditions: NSC lung cancer subpanel; read-out: GI50 MG_MID; cited from earlier work
U251 = system: U251; parameters: method as in earlier work; conditions: cited from earlier work
SNB-75 = system: SNB-75; parameters: method as in earlier work; conditions: cited from earlier work
HCC-2998 = system: HCC-2998; parameters: method as in earlier work; conditions: cited from earlier work
UACC-257 = system: UACC-257; parameters: method as in earlier work; conditions: cited from earlier work
COLO 205 = system: COLO 205; parameters: method as in earlier work; conditions: cited from earlier work
SK-MEL-28 = system: SK-MEL-28; parameters: method as in earlier work; conditions: cited from earlier work
UACC-62 = system: UACC-62; parameters: method as in earlier work; conditions: cited from earlier work
KM12 = system: KM12; parameters: method as in earlier work; conditions: cited from earlier work
Breast cancer = system: Breast cancer; parameters: method as in earlier work; conditions: Breast cancer subpanel; read-out: GI50 MG_MID; cited from earlier work
IGROV1 = system: IGROV1; parameters: method as in earlier work; conditions: cited from earlier work
SF-295 = system: SF-295; parameters: method as in earlier work; conditions: cited from earlier work
EKVX = system: EKVX; parameters: method as in earlier work; conditions: cited from earlier work
MDA-MB-468 = system: MDA-MB-468; parameters: method as in earlier work; conditions: cited from earlier work
chorioallantoic membrane = conditions: in vivo
Source text: In this assay, the irritation potential may range from 0 to 21, with 0 being non-irritant and 21 being the most irritant. […] The irritation score was established according to Luepke scale: 0–0.9 indicates non-irritant, 1–4.9 indicates weakly irritant, 5–8.9 indicates moderately irritant, while 9–21 means strongly irritant (Table 6) [88, 89].
The in vivo Hen’s Egg Chorioallantoic Membrane Test (HET-CAM) assay determines a potential irritant effect on the vascular plexus of the chorioallantoic membrane [94]. The HET-CAM method was carried out following ICCVAM recommendations published in November 2016 in Appendix G and adapted to our conditions [88, 95, 96]. Thus, a volume of 300 µL of control or test solution was applied and the modifications produced at the CAM level were monitored by means of stereomicroscopy (Discovery 8 Stereomicroscope, Zeiss), registering significant images (Axio CAM 105 color, Zeiss), before application after 5 min of contact with the samples. All images were processed using Zeiss ZEN software, Gimp 2.8, and ImageJ software.
Negative control was represented by distilled water and solvent control DMSO 0.5%, and positive control by sodium lauryl sulphate (SLS) 0.5% in distillate water. The test substances were tested in concentrations of 1 µM.
Finally, the following reactions were: hemorrhage—H (blood vessel bleeding), vascular lysis—L (disintegration of blood vessels), coagulation—C (intra- or extra-vascular protein denaturizing). A variety of analysis methods may be used to assess irritancy potential of test substances. One analysis method that has been used extensively is an irritation score (IS). The formula used to generate an IS value is:(1) IS=5×301−Sec H/300+7×300−Sec L/300+9×301−Sec C/300 where: H = hemorrhage; L = vessel lysis; C = coagulation; hemorrhage time (Sec H) = onset of hemorrhage reactions on CAM (in seconds); lysis time (Sec L) = onset of vessel lysis on CAM (in seconds); coagulation time (Sec C) = onset of coagulation formation on CAM (in seconds). Means values are obtained. […] The IS values range on a scale between 0 and 21.

## O=c1[nH]cc(F)c(=O)[nH]1 [Compound 5-FU, 5-fluorouracil]
NCI-H226
  GI50: 54700 nM
NCI/ADR-RES
  GI50: 310 nM
Colon Cancer
  GI50: 260 nM
DU-145
  GI50: 360 nM
[1]
  GI50: 6970 nM
NCI-H522
  GI50: 7270 nM
TK-10
  GI50: 1120 nM
OVCAR-5
  GI50: 10900 nM
SK-MEL-5
  GI50: 460 nM
NCI-H23
  GI50: 330 nM
ACHN
  GI50: 270 nM
MALME-3M
  GI50: 50 nM
A549/ATCC
  GI50: 180 nM
LOX IMVI
  GI50: 240 nM
OVCAR-3
  GI50: 10 nM
UO-31
  GI50: 1420 nM
786-0
  GI50: 720 nM
CAKI-1
  GI50: 70 nM
T-47D
  GI50: 8120 nM
SF-268
  GI50: 1620 nM
Prostate cancer
  GI50: 1360 nM
HOP-92
  GI50: 77900 nM
M14
  GI50: 980 nM
SK-MEL-2
  GI50: 56700 nM
CNS cancer
  GI50: 17000 nM
SK-OV-3
  GI50: 21800 nM
Ovarian cancer
  GI50: 5770 nM
MCF7
  GI50: 70 nM
HT29
  GI50: 170 nM
A498
  GI50: 350 nM
PC-3
  GI50: 2360 nM
HOP-62
  GI50: 390 nM
Renal Cancer
  GI50: 880 nM
RXF 393
  GI50: 2610 nM
SN12C
  GI50: 490 nM
SF-539
  GI50: 60 nM
SW-620
  GI50: 920 nM
MDA-MB-31/ATCC
  GI50: 6600 nM
OVCAR-4
  GI50: 4430 nM
BT-549
  GI50: 10600 nM
Melanoma
  GI50: 7070 nM
NCI-H460
  GI50: 50 nM
SNB-19
  GI50: 3810 nM
OVCAR-8
  GI50: 1740 nM
HCT-15
  GI50: 110 nM
MDA-MB-435
  GI50: 70 nM
HS 578T
  GI50: 9770 nM
HCT-116
  GI50: 220 nM
NSC lung cancer
  GI50: 20100 nM
U251
  GI50: 920 nM
SNB-75
  GI50: 78700 nM
HCC-2998
  GI50: 50 nM
UACC-257
  GI50: 3550 nM
COLO 205
  GI50: 150 nM
SK-MEL-28
  GI50: 1030 nM
UACC-62
  GI50: 520 nM
KM12
  GI50: 210 nM
Breast cancer
  GI50: 7030 nM
IGROV1
  GI50: 1220 nM

## COc1cccc2c1C(=O)c1c(O)c3c(c(O)c1C2=O)C[C@@](O)(C(=O)CO)C[C@@H]3O[C@H]1C[C@H](N)[C@H](O)[C@H](C)O1 [DRB, doxorubicin]
NCI-H226
  GI50: 50 nM
NCI/ADR-RES
  GI50: 7160 nM
DU-145
  GI50: 110 nM
[1]
  GI50: 380 nM
NCI-H522
  GI50: 30 nM
OVCAR-5
  GI50: 410 nM
SK-MEL-5
  GI50: 80 nM
SF-295
  GI50: 100 nM
NCI-H23
  GI50: 150 nM
ACHN
  GI50: 80 nM
MALME-3M
  GI50: 120 nM
A549/ATCC
  GI50: 60 nM
LOX IMVI
  GI50: 70 nM
OVCAR-3
  GI50: 390 nM
UO-31
  GI50: 490 nM
786-0
  GI50: 130 nM
CAKI-1
  GI50: 950 nM
T-47D
  GI50: 60 nM
SF-268
  GI50: 100 nM
Prostate cancer
  GI50: 210 nM
EKVX
  GI50: 410 nM
HOP-92
  GI50: 100 nM
M14
  GI50: 180 nM
SK-MEL-2
  GI50: 170 nM
CNS cancer
  GI50: 80 nM
SK-OV-3
  GI50: 220 nM
Ovarian cancer
  GI50: 1260 nM
MCF7
  GI50: 30 nM
HT29
  GI50: 120 nM
A498
  GI50: 100 nM
PC-3
  GI50: 320 nM
HOP-62
  GI50: 70 nM
Renal Cancer
  GI50: 270 nM
RXF 393
  GI50: 100 nM
SN12C
  GI50: 70 nM
SF-539
  GI50: 120 nM
SW-620
  GI50: 90 nM
MDA-MB-31/ATCC
  GI50: 510 nM
OVCAR-4
  GI50: 370 nM
BT-549
  GI50: 230 nM
MDA-MB-468
  GI50: 50 nM
Melanoma
  GI50: 150 nM
NCI-H460
  GI50: 20 nM
SNB-19
  GI50: 40 nM
OVCAR-8
  GI50: 100 nM
HCT-15
  GI50: 6460 nM
MDA-MB-435
  GI50: 250 nM
HS 578T
  GI50: 330 nM
HCT-116
  GI50: 80 nM
NSC lung cancer
  GI50: 110 nM
U251
  GI50: 40 nM
SNB-75
  GI50: 70 nM
HCC-2998
  GI50: 260 nM
UACC-257
  GI50: 140 nM
COLO 205
  GI50: 180 nM
SK-MEL-28
  GI50: 210 nM
UACC-62
  GI50: 120 nM
KM12
  GI50: 270 nM
Breast cancer
  GI50: 190 nM
IGROV1
  GI50: 170 nM

## CCCCCCCCCCCCOS(=O)(=O)[O-].[Na+] [SLS 0.5%, sodium laurylsulphate]
Chorioallantoic membrane
  Type of Effect: Strong irritant
